Results taken from patent publication EP1806135A2, “The use of a protein tyrosine inhibitor such as genistein in the treatment of diabetic retinopathy or ocular inflammation” (THE JOHNS HOPKINS UNIVERSITY SCHOOL OF MEDICINE, priority 1998, dated 1999).

How the values were obtained:
pigmented rabbits = experiment: Ocular inflammation (vitreous cavity haze) after intravitreal injection of homologous dermal fibroblasts; format: in vivo, rabbit; details: graded 3 days after fibroblast injection
Method: The principles of laboratory animal care (NIH publication No. 86-23, revised 1985) were followed. For all studies, pigmented rabbits, weighing 2.5-3 kg were used. The animals were anesthetized with a cocktail of ketamine (25 mg/kg) and xylazine (5 mg/kg), and the pupils were dilated with topical 1 % tropicamide and 0.5% phenylephrine.
Vitreous liquefaction was caused by injection of SF6 gas. After an anterior chamber paracentesis (0.1 ml), pure SF6 gas (0.3 ml) was injected. The 30-gauge needle was inserted inferiorly in order to maximize the vitreous liquefaction.
Rabbit dermal fibroblasts were obtained from rabbit rump biopsy material prepared under sterile conditions: Primary cultures were incubated in Dulbecco's modified Eagle's medium (DMEM) with 30% calf serum, antibiotics (penicillin G sodium, streptomycin sulfate) and antimycotics (amphotericin B) under a humid atmosphere of 5% carbon dioxide in air for 72 hours. The medium was then changed to DMEM with 10% calf serum, antibiotics and antimycotics as above. The cultures were passaged weekly. Cells were harvested by incubating them with 3.5 ml of 0.04% trypsin for 4 minutes and collecting the cells in stop media. The dispersed cells were centrifuged at 1,000 rpm for 5 minutes and resuspended in 1 ml of phosphate-buffered saline. After cell counts of a 0.05 ml aliquot, the suspension was diluted to achieve a final concentration of 2.5x10^4 cells in a 0.1 ml of phosphate-buffered saline.
Fourteen days after the injection of SF6 gas, a 30-gauge needle was inserted 3 mm posterior to the corneoscleral limbus in the superonasal quadrant under microscopic control. With the bevel of the needle directed upward, 2.5x10^4 homologous rabbit dermal fibroblasts suspended in 0.1 ml sterile phosphate-buffered saline were injected just in front of the optic nerve head. This was performed in both eyes of all rabbits. The rabbits were immediately placed on their backs for 1 hour to allow the cells to settle over the vitreous surface. […]

PI3-K = experiment: Western immunoblot analysis of immunoprecipitated tyrosine phosphorylated proteins in the retina: PI3-K; format: in vivo, Zucker diabetic fatty rat; details: 50 mg/kg intraperitoneally, repeated after two hours; especially in the diabetic rat
From the text: (§1) Six pair of litter mates of Zucker rats, i.e., six male retired breeder Zucker diabetic fatty (ZDF, fa/fa) rats and six male retired breeder lean Zucker (fa/+) rats, were obtained (Genetic Models, Inc., Indianapolis, IN). The Zucker diabetic fatty rat develops a microvascular retinopathy involving basement membrane thickening of retinal capillaries, pericyte loss, capillary hypercellularity, and increased endothelial intercellular junctions (Danis et al., Invest. Ophthalmol. Vis. Sci. 34:2367-2371 (1993); and Dosso et al., Diabetologia 33:137-144 (1990)). The microvascular changes known to occur in the Zucker diabetic fatty rats are associated with the elevated levels of VEGF and platelet-derived growth factor (PDGF) and with activation of PTK pathways, especially pathways that include phosphatidylinositol-3 kinase (PI3-K) and mitogen-activated protein kinase (MAPK). […] The average blood glucose value was more than 500 mg/dl for the Zucker diabetic fatty rats and 120 mg/dl for the control lean rats as measured by glucose oxidase assay at the time of death (Danis et al. (1993), supra). […]
(§2) The retinal tissue samples were added to immunoprecipitation buffer (1 % Triton X-100, 150 mM NaCl, 10 mM Tris, pH 7.4, 1 mM EGTA, 0.2 mM sodium vanadate, 0.2 mM PMSF, 0.5 % NP-40) and homogenized. […] Protein concentrations were measured by the Pierce BCA method. […]

[1] = system: tyrosine phosphorylated proteins; experiment: Western immunoblot analysis of tyrosine phosphorylated proteins in the retina; format: in vivo, Zucker diabetic fatty rat; details: 50 mg/kg intraperitoneally, repeated after two hours; diabetic rats compared with the non-treated group
From the text: (§3) Six pair of litter mates of Zucker rats, i.e., six male retired breeder Zucker diabetic fatty (ZDF, fa/fa) rats and six male retired breeder lean Zucker (fa/+) rats, were obtained (Genetic Models, Inc., Indianapolis, IN). The Zucker diabetic fatty rat develops a microvascular retinopathy involving basement membrane thickening of retinal capillaries, pericyte loss, capillary hypercellularity, and increased endothelial intercellular junctions (Danis et al., Invest. Ophthalmol. Vis. Sci. 34:2367-2371 (1993); and Dosso et al., Diabetologia 33:137-144 (1990)). The microvascular changes known to occur in the Zucker diabetic fatty rats are associated with the elevated levels of VEGF and platelet-derived growth factor (PDGF) and with activation of PTK pathways, especially pathways that include phosphatidylinositol-3 kinase (PI3-K) and mitogen-activated protein kinase (MAPK). Each pair of litter mates was between six and seven months of age. Rats were fed with a diet of Purina 5008 rat chow. The animals were treated in accordance with The Association for Research in Vision and Ophthalmology (ARVO) Statement for the Use of Animals in Ophthalmic and Vision Research. The average blood glucose value was more than 500 mg/dl for the Zucker diabetic fatty rats and 120 mg/dl for the control lean rats as measured by glucose oxidase assay at the time of death (Danis et al. (1993), supra). […]

retina = experiment: Retinal toxicity by electroretinography after oral administration; format: in vivo; details: orally administered, 75 mg/kg/day to 300 mg/kg/day over a period of six months, Zucker diabetic fatty rats
From the text: (§4) An advantage of genistein is that it is very safe and efficacious. […] Also, no effect of orally administered genistein was found with respect to the weight of the ovaries and the uterus in female rats.

MAPK = experiment: Western immunoblot analysis of immunoprecipitated tyrosine phosphorylated proteins in the retina: MAPK; format: in vivo, Zucker diabetic fatty rat; details: 50 mg/kg intraperitoneally, repeated after two hours; treated group compared with the non-treated animals group
From the text: as §1, §2

[2] = Food intake, body weight and organ weights after oral administration; format: in vivo, rats
From the text: as §4

PCNA [3] = experiment: Western immunoblot analysis of PCNA in the retina; format: in vivo; details: 50 mg/kg intraperitoneally, repeated after two hours; Zucker diabetic fatty rat retina; not down to the lean control level
From the text: as §3

67 kDa band = experiment: Total protein profile of retinal homogenate (gel electrophoresis, Coomassie brilliant blue staining); format: in vivo; details: 50 mg/kg intraperitoneally, repeated after two hours; retina taken 24 hours later; Zucker diabetic fatty rat
From the text: as §1, with “(MAPK). Each pair of litter mates was between six and seven months of age. Rats were fed with a diet of Purina 5008 rat chow.” for “(MAPK).”
Protein concentrations were measured by the Pierce BCA method. […]

PCNA [4] = experiment: Immunohistochemical analysis of PCNA in the retina; format: in vivo; details: genistein treated diabetic rats compared with untreated Zucker diabetic fatty rats
Method: Two pairs of rats were used for immunohistochemical analysis of PCNA in the retina. Under deep anesthesia with ketamine and xylazine, the four rats were perfused transcardially with 0.1 M phosphate-buffered saline (PBS; pH 7.4) containing 1 mM orthovanadate, followed by perfusion of 2 % paraformaldehyde in 0.1 M PBS for fixation. The eyes were then removed and immersed in the same fixative for 30 min. The anterior segments were removed and the posterior segments were transferred into a graded sucrose solution from 5 % to 15 % for 2 hrs and incubated in 20 % sucrose solution overnight at 4°C. After cryoprotection, the eyes were molded in O.C.T. compound (Miles, Inc., Elkhart, IN) and frozen in isopentane with dry ice. The posterior segments were cut into 8 µm sections.
The sections were treated with 3 % peroxide to block intrinsic peroxidase, and incubated with 2 % normal horse serum for 20 min. After rinsing in 0.1 M PBS three times, the sections were incubated overnight at 4°C with anti-PCNA antibody (1:1,000 dilution). After the incubation, the sections were rinsed in 0.1 M PBS, and incubated with biotinylated anti-mouse IgG antibody (Vector Laboratories, Inc., Burlingame, CA; 1:500 dilution) for 30 min at room temperature, and then incubated with […] streptavidin (Kirkegaad & Perry Laboratories, Inc., Gaithersburg, MD; 1:500 dilution). […]

[5] = oral administration, male and female rats
[6] = orally administered, female rats

Row | Compound | eyes with severe inflammation (vitreous haze) (pigmented rabbits; group 1: 23 µg intravitreally 1 hour (prophylactic) after fibroblast injection, control eyes 47.1%, p<0.01) [%] | eyes with severe inflammation (vitreous haze) (pigmented rabbits; group 2: 23 µg intravitreally 2 days (therapeutic) after fibroblast injection, control eyes 50%, p>0.05) [%] | eyes with severe inflammation (vitreous haze) (pigmented rabbits; group 3: 11.5 µg intravitreally at 1 hour and again 2 days after fibroblast injection, control eyes 77.8%, p<0.05) [%] | tyrosine phosphorylated PI3-K stained band at 85 kDa (PI3-K) | staining of tyrosine phosphorylated proteins at 50, 66, 97 and 116 kDa [1] | toxicity to the retina as measured by electroretinography (retina) | level of tyrosine phosphorylated MAPK at 44 kDa (MAPK) | body weight [2, 5] | food intake [2, 5] | weight of the ovaries [2, 6] | weight of the uterus [2, 6] | level of PCNA at 36 kDa (PCNA [3]) | amount of staining of the 67 kDa band in total protein profiles (67 kDa band) | PCNA immunopositive cells in the retina (PCNA [4])
1 | COC1C=CC=C(C)C(=O)NC2=CC(=O)C=C(C2=O)C(OC)C(C)CC(OC)C(OC)C(C)C=C(C)C1OC(N)=O (centres unmarked) [HA, Herbimycin A] | 0 | 10 | 22.2 | – | – | – | – | – | – | – | – | – | – | –
2 | O=c1c(-c2ccc(O)cc2)coc2cc(O)cc(O)c12 [genistein, 5,7-dihydroxy-3-(4-hydroxyphenyl)-4H-1-benzopyran-4-one] | – | – | – | reduced | decreased staining at each molecular weight | nontoxic to the retina | decreased | no effect | no effect | no effect | no effect | reduced this increase | reduced | fewer immunopositive cells were detected
